Measured values from patent US4868299A, “Antibacterially active pyrido-benzothiazine derivatives with long-term action” (Mediolanum Farmaceutici Srl, priority 1986, dated 1989).
In brackets after ≈: the same amount, converted by molar mass. Like-named read-outs stand apart in the source and are kept apart here.

Experiments:
[1] = plasma and tissue concentrations after oral administration to the rat (HPLC); format: in vivo; conditions: rat, 50 mg/kg oral; for concentration at 0.5 h: 0.5 hours after treatment; for concentration at 4 h: 4 hours after treatment; for concentration at 15 h: 15 hours after treatment
Procedure: (§1) The compound (X) was administered orally at a dose of 50 mg/kg to the rat after which the plasma, tissue and urine concentrations were evaluated by the HPLC method, as described hereinafter.
The plasma and tissues (heart, kidney and liver) were withdrawn from groups of 3 female rats at various times after oral administration.
(§2) The HPLC determination was made by the following procedure: 2 mg of N-dimethyldiarepam (internal standard), 1 ml of citrate buffer (0.1 M, pH 6.2) and 6 ml of chloroform are added to 1 ml of plasma or to 1 ml of supernatant obtained after centrifuging a homogenized tissue in 3 volumes of physiological solution at 2000 r.p.m. for 5 minutes.
(§3) After agitating for 20 minutes and centrifuging at 3000 r.p.m. for 5 minutes, the organic phase is separated and dried over a water bath at 70° C.
(§4) The residue is collected in 50 μl of methanol, and 20 μl of the solution are injected into a HPLC (Gilson) column under the following conditions: column μ Bondopak C-18 ([…], wavelength 245 nm), flow: 0.7 ml/min, mobile phase: (A) 0.1% acetic acid and (B) methanol, gradient: […]

[2] = urine concentrations after oral administration to the rat (HPLC); format: in vivo; conditions: 50 mg/kg oral; for Cumulative excretion (urine) / Volume excreted (urine): pool of 6 rats
Procedure: as §1
The urine was collected at various times during the 24 hours following administration. The results relative to urine concentrations are summarised in Table 2, and refer to a urine pool obtained form 6 female rates having a weight of about 100 g.
as §2, §3, §4

[3] = tested on: Staphylococcus 7; assay: in-vitro antibacterial activity, MIC by agar dilution (multipoint inoculator); format: cell-based; conditions: Staphylococcus 7; 18 hours at 37° C; read-out: Minimum Inhibiting Concentration (MIC)
Procedure: (§5) The antibacterial activity of the compounds according to the invention was determined "in vitro" on pathogenic strains of recent clinical isolation by testing agar dilutions using a multipoint inoculator (Denley Techn. Ltd., England).
(§6) The culture medium used is isosensitest agar (Oxoid), in a quantity of 20 ml in a Petri capsule. The compounds to be tested were dissolved at various dilutions and incorporated in agar.
(§7) The bacterial inoculum, originating from an overnight broth and containing 10^5 colony-forming units per point, was inoculated by a multipoint inoculator. The bacterial growth was evaluated after 18 hours of incubation at 37° C.
(§8) For comparison purposes, the results relative to compound (XIII) and to nalidixic acid are also reported.

[4] = tested on: Proteus 25; assay: as above; format: cell-based; conditions: Proteus 25; 18 hours at 37° C; read-out: Minimum Inhibiting Concentration (MIC)
Procedure: as §5, §6, §7, §8

[5] = tested on: Escherichia 963; assay: as above; format: cell-based; conditions: Escherichia 963; 18 hours at 37° C; read-out: Minimum Inhibiting Concentration (MIC)
Procedure: as §5, §6, §7, §8

[6] = tested on: Serratia 9; assay: as above; format: cell-based; conditions: Serratia 9; 18 hours at 37° C; read-out: Minimum Inhibiting Concentration (MIC)
Procedure: as §5, §6, §7, §8

[7] = tested on: Pseudomonas 22437; assay: as above; format: cell-based; conditions: 18 hours at 37° C, read-out: Minimum Inhibiting Concentration (MIC)
Procedure: as §5, §6, §7, §8

[8] = tested on: Enterobacter 041; assay: as above; format: cell-based; conditions: Enterobacter 041; 18 hours at 37° C; read-out: Minimum Inhibiting Concentration (MIC)
Procedure: as §5, §6, §7, §8

[9] = tested on: Pseudomonas 19; assay: as above; format: cell-based; conditions: Pseudomonas 19; 18 hours at 37° C; read-out: Minimum Inhibiting Concentration (MIC)
Procedure: as §5, §6, §7, §8

[10] = tested on: Escherichia 15; assay: as above; format: cell-based; conditions: 18 hours at 37° C, read-out: Minimum Inhibiting Concentration (MIC)
Procedure: as §5, §6, §7, §8

[11] = tested on: Klebsiella 4; assay: as above; format: cell-based; conditions: Klebsiella 4; 18 hours at 37° C; read-out: Minimum Inhibiting Concentration (MIC)
Procedure: as §5, §6, §7, §8

[12] = tested on: Serratia 10; assay: as above; format: cell-based; conditions: 18 hours at 37° C, read-out: Minimum Inhibiting Concentration (MIC)
Procedure: as §5, §6, §7, §8

[13] = tested on: Proteus 966; assay: as above; format: cell-based; conditions: Proteus 966; 18 hours at 37° C; read-out: Minimum Inhibiting Concentration (MIC)
Procedure: as §5, §6, §7, §8

[14] = tested on: Citrobacter 120; assay: as above; format: cell-based; conditions: Citrobacter 120; 18 hours at 37° C; read-out: Minimum Inhibiting Concentration (MIC)
Procedure: as §5, §6, §7, §8

[15] = tested on: Enterobacter 2653; assay: as above; format: cell-based; conditions: Enterobacter 2653; 18 hours at 37° C; read-out: Minimum Inhibiting Concentration (MIC)
Procedure: as §5, §6, §7, §8

[16] = tested on: Citrobacter 118; assay: as above; format: cell-based; conditions: Citrobacter 118; 18 hours at 37° C; read-out: Minimum Inhibiting Concentration (MIC)
Procedure: as §5, §6, §7, §8

[17] = tested on: Staphylococcus 29; assay: as above; format: cell-based; conditions: Staphylococcus 29; 18 hours at 37° C; read-out: Minimum Inhibiting Concentration (MIC)
Procedure: as §5, §6, §7, §8

[18] = heart, read-out: Heart concentration
[19] = kidney, read-out: Kidney concentration
[20] = liver, read-out: Liver concentration
[21] = plasma, read-out: Plasma concentration

**Q.** For CC1Cn2cc(C(=O)O)c(=O)c3cc(F)c(N4CCN(C)CC4)c(c32)S1 (stereo not drawn) [(X), 9-fluoro-10[N(N'-methyl)piperazinyl]-2-methyl-7-oxo-2,3-dihydro-7H-pyrido[1,2,3-de][1,4]benzothiazine-6-carboxylic acid], which “absorption after oral administration, in words” value [1] is on record?
**A.** rapidly absorbed after oral administration to induce high tissue levels

**Q.** And the “heart, kidney and liver concentrations relative to plasma, in words” value [1]?
**A.** always greater than those observed in the plasma

**Q.** And the “tissue bioavailability, in words” value [1]?
**A.** excellent tissue bioavailability

**Q.** And the “concentrations relative to the MIC values, in words” value ([1]; 15 hours after administration)?
**A.** high concentrations relative to the MIC values are still present

**Q.** What about the concentration at 0.5 h [1, 18] of the same compound?
**A.** 19200 ng/g

**Q.** What about the concentration at 4 h [1, 18] of the same compound?
**A.** 18600 ng/g

**Q.** And the concentration at 15 h [1, 18]?
**A.** 4630 ng/g

**Q.** What about the concentration at 0.5 h [1, 19] of the same compound?
**A.** 34400 ng/g

**Q.** What about the concentration at 4 h [1, 19] of the same compound?
**A.** 38700 ng/g

**Q.** And the concentration at 15 h [1, 19]?
**A.** 5900 ng/g

**Q.** And the concentration at 0.5 h [1, 20]?
**A.** 62900 ng/g

**Q.** And the concentration at 4 h [1, 20]?
**A.** 34300 ng/g

**Q.** And the concentration at 15 h [1, 20]?
**A.** 9370 ng/g

**Q.** What about the concentration at 0.5 h [1, 21] of the same compound?
**A.** 10.2 µg/mL

**Q.** And the concentration at 4 h [1, 21]?
**A.** 8.1 µg/mL

**Q.** What about the concentration at 15 h [1, 21] of the same compound?
**A.** 3.5 µg/mL

**Q.** And the “urine concentrations, in words” value [2]?
**A.** lasting and high

**Q.** What about the “Cumulative excretion (urine)” value ([2]; 0-1 hours after treatment) of the same compound?
**A.** 0.50 mg

**Q.** What about the “Volume excreted (urine)” value ([2]; 0-1 hours after treatment) of the same compound?
**A.** 5.5 mL

**Q.** And the “Cumulative excretion (urine)” value ([2]; 1-2 hours after treatment)?
**A.** 1.33 mg

**Q.** What about the “Volume excreted (urine)” value ([2]; 1-2 hours after treatment) of the same compound?
**A.** 3.2 mL

**Q.** And the “Cumulative excretion (urine)” value ([2]; 2-4 hours after treatment)?
**A.** 2.05 mg

**Q.** What about the “Volume excreted (urine)” value ([2]; 2-4 hours after treatment) of the same compound?
**A.** 7.2 mL

**Q.** And the “Cumulative excretion (urine)” value ([2]; 4-8 hours after treatment)?
**A.** 3.13 mg

**Q.** What about the “Volume excreted (urine)” value ([2]; 4-8 hours after treatment) of the same compound?
**A.** 6.0 mL

**Q.** And the “Cumulative excretion (urine)” value ([2]; 8-24 hours after treatment)?
**A.** 8.17 mg

**Q.** What about the “Volume excreted (urine)” value ([2]; 8-24 hours after treatment) of the same compound?
**A.** 28.0 mL

**Q.** And the concentration at 1 h ([2]; urine, 0-1 hours after treatment)?
**A.** 90 µg/mL

**Q.** And the concentration at 2 h ([2]; urine, 1-2 hours after treatment)?
**A.** 260 µg/mL

**Q.** What about the concentration at 4 h ([2]; urine, 2-4 hours after treatment) of the same compound?
**A.** 100 µg/mL

**Q.** And the concentration at 8 h ([2]; urine, 4-8 hours after treatment)?
**A.** 180 µg/mL

**Q.** What about the concentration at 24 h ([2]; urine, 8-24 hours after treatment) of the same compound?
**A.** 180 µg/mL

**Q.** What about the dose excreted at 24 h ([2]; urine, within 24 hours, of the orally administered dose, read-out: percentage urine excretion of the non-metabolized product) of the same compound?
**A.** ~27%

**Q.** What about the MIC [3] of the same compound?
**A.** 2 µg/mL (≈ 5.3 µM)

**Q.** And the MIC [4]?
**A.** 8 µg/mL (≈ 21.2 µM)

**Q.** What about the MIC [5] of the same compound?
**A.** 2 µg/mL (≈ 5.3 µM)

**Q.** And the MIC [6]?
**A.** 8 µg/mL (≈ 21.2 µM)

**Q.** And the MIC [7]?
**A.** 16 µg/mL (≈ 42.4 µM)

**Q.** And the MIC [8]?
**A.** 0.25 µg/mL (≈ 0.662 µM)

**Q.** What about the MIC [9] of the same compound?
**A.** 16 µg/mL (≈ 42.4 µM)

**Q.** What about the MIC [10] of the same compound?
**A.** 0.25 µg/mL (≈ 0.662 µM)

**Q.** What about the MIC [11] of the same compound?
**A.** 0.25 µg/mL (≈ 0.662 µM)

**Q.** And the MIC [12]?
**A.** 2 µg/mL (≈ 5.3 µM)

**Q.** And the MIC [13]?
**A.** 8 µg/mL (≈ 21.2 µM)

**Q.** And the MIC [14]?
**A.** 0.25 µg/mL (≈ 0.662 µM)

**Q.** And the MIC [15]?
**A.** 0.5 µg/mL (≈ 1.32 µM)

**Q.** And the MIC [16]?
**A.** 0.5 µg/mL (≈ 1.32 µM)

**Q.** And the MIC [17]?
**A.** 2 µg/mL (≈ 5.3 µM)
